According to patent EP2924040A1, “2-Amino-1-(o-tolyl)pyrrolo[3,2-b]quinoxaline-3-carboxamide derivates” (Universität Zürich, priority 2014, dated 2015):

System: A498
Assay: Cell culture and GI50 determination (resazurin)
Format: cell-based
Settings: Homo sapiens, A498, 48h incubation
Experimental: MDA-MB-231 (breast cancer) and KM12 (colon cancer) cells obtained from the UZH Cancer Institute, HOP-92 (lung cancer) cells purchased from the National Cancer Institute (NCl) and A498 (kidney cancer) cells obtained from Prof. Krek (Institute of Cell Biology, ETH Zurich) were cultured in Dulbecco's modified Eagle's medium (DMEM) supplemented with 10% (v/v) fetal bovine serum. K562 leukemia cells obtained from Dr. Silvio Hemmi (Institute of Molecular Life Sciences, UZH) were cultured using RPMI medium supplemented with 5% (v/v) fetal bovine serum. All the media was additionally supplemented with 100 units/mL of penicillin, 100µg/mL of streptomycin, 4.5 g/L glucose, 0.11g/L sodium pyrubate and 2mM glutamine and the cells were grown at 37 °C in 5% CO2 atmosphere with 80% relative humidity.
MDA-MB-231, HT-29, KM12, HOP-92 and A498 cells were plated at 10,000 cells per well (100 µL per well) in 96-well culture dishes and allowed to incubate for 24 h. The old media was removed, the cells were washed with PBS (phosphate-buffered saline) and fresh media was added. A 5 mmol/L solution of inhibitor (in 100% DMSO) was serially diluted in the culture media (12 different concentrations were used) and allowed to incubate for 72 h (MDA-MB-231) or 48h (A498). Control cells were treated with the same DMSO concentrations. After the incubation period the media was once more removed and the cells were washed with PBS to then be incubated with fresh media containing 86 nmol/L resazurin. After 3 hours, the fluorescence was quantified using a fluorescence microplate reader (Biotek, FLx800™) at the respective excitation and emission wavelength of 560 and 590 nm. Resazurin becomes fluorescent under mitochondrial reduction and its emission directly correlates with the metabolic stability of the cells. The measured fluorescence values were corrected from the control samples containing DMSO and GI50 values were determined by plotting the fraction of metabolically active cells against the log of the drug concentration. All measurements were performed at least in triplicate.

## COc1ccc(C)c(-n2c(N)c(C(N)=O)c3nc4ccccc4nc32)c1 [Compound 8, 2-Amino-1-(5-methoxy-2-methylphenyl)-1H-pyrrolo[2,3-b]quinoxaline-3-carboxamide, reference compound]
  GI50: 59.3 µM
